Source: US12384764B2, “Pharmaceutical compounds” (Pfizer Inc., priority 2019, dated 2025)

What was measured:
[1] = Liver microsomal stability, rat; format: in vitro ADME; details: pooled liver microsomes, pH 7.4; rat liver microsomes 0.5 mg/mL, 1 μM compound, NADPH, 37° C.; read-out: Liver Microsomal Stability t½, rat
Method: (§1) Compounds were subjected to the following assays to investigate liver microsomal stability.
(§2) Microsomal Incubation: Experimental Procedure
(§3) Pooled liver microsomes were purchased from a reputable commercial supplier and stored at −80° C. prior to use. Microsomes (final protein concentration 0.5 mg/mL), 0.1 M phosphate buffer pH 7.4 and test compound (final substrate concentration 1 μM; final DMSO concentration 0.25%) were pre-incubated at 37° C. prior to the addition of NADPH (final concentration 1 mM) to initiate the reaction. The final incubation volume was 50 uL. A control incubation was included for each compound tested where 0.1 M phosphate buffer pH 7.4 was added instead of NADPH (minus NADPH). Two control compounds were included with each species. All incubations were performed singularly for each test compound. Each compound was incubated for 0, 5, 15, 30 and 45 min. The control (minus NADPH) was incubated for 45 min only. The reactions were stopped by transferring incubate into acetonitrile at the appropriate time points, in a 1:3 ratio. The termination plates are centrifuged at 3,000 rpm for 20 min at 4° C. to precipitate the protein. Following protein precipitation, the sample supernatants were combined in cassettes of up to 4 compounds, internal standard added, and samples analysed by LC-MS/MS. From a plot of ln peak area ratio (compound peak area/internal standard peak area) against time, the gradient of the line was determined. Subsequently, half-life (t1/2) and intrinsic clearance (CLint) were calculated.

[2] = Liver microsomal stability, dog; format: in vitro ADME; details: pooled liver microsomes, pH 7.4; dog liver microsomes 0.5 mg/mL, 1 μM compound, NADPH, 37° C.; read-out: Liver Microsomal Stability t½, dog
Method: as §1, §2, §3

[3] = Liver microsomal stability, human; format: in vitro ADME; details: pooled liver microsomes, pH 7.4; human liver microsomes 0.5 mg/mL, 1 μM compound, NADPH, 37° C.; read-out: Liver Microsomal Stability t½, human
Method: as §1, §2, §3

[4] = test system: RSV A2; experiment: RSV plaque reduction assay; format: cell-based; details: human respiratory syncytial virus, HepG2, 48 h; Hep-G2 cells, RSV A2, 2 days incubation; mean of at least two experiments
Method: Compounds were subjected to an RSV plaque reduction assay according to the following protocol.
Hep-G2 cells (ECACC, 85011430) were passaged in flasks and seeded in 24-well plates in DMEM containing antibiotics and supplemented with 10% FBS. During inoculation and subsequent incubation, cells were cultured in DMEM containing 2% FBS. 100 plaque forming unit/well of RSV (RSV A2 ECACC, 0709161v) was mixed with eight serial dilutions of compound. Subsequently, 100 μL of the virus/compound mixtures was added to confluent Hep-G2 cell monolayers. The cells and virus/compound mixtures were incubated at 37° C. in a humidified 5% CO2 incubator for 2 h prior to removal of the inoculum and addition of 1 mL of overlay (DMEM containing FBS and 0.8% CMC) containing compound dilutions. The cells and were incubated at 37° C. in a humidified 5% CO2 incubator for 2 days.
Cells were washed with PBS before adding 75/25% v/v EtOH/MeOH, for 3 min. Fixative was removed and plates were washed with PBS. A pre-titrated amount of the primary antibody was added in 200 μL PBS/2% milk powder, and plates incubated for 90 min at 37° C. The plates were washed 3 times with PBS/0.05% Tween20 before addition of rabbit anti-goat horse radish peroxidase in 200 μL PBS/2% milk powder, and incubated for 1 h at 37° C. Following three wash steps with PBS/0.05% Tween20, 200 μL ready-to-use TrueBlue was added and plates were incubated at rt for 10-15 min before washing with water. After removal of water, plates were air-dried in the dark.
Plates were scanned and analysed using the Immunospot S6 Macro analyser, which is equipped with BioSpot analysis software for counting immunostained plaques (virospots). Plaque counts were used to calculate % infection relative to the mean of the plaque count in the virus control wells for RSV. The EC50 value was calculated as 50% reduction in signal, respectively, by interpolation of inhibition curves fitted with a 4-parameter nonlinear regression with a variable slope in Dotmatics. Plaque EC50 and cell toxicity CC50 values are a mean of at least two experiments and figures are rounded to whole units.

[5] = Cell cytotoxicity (CC50); format: cell-based; details: human, Hep-G2 cells; mean of at least two experiments
[6] = test system: RSV; details: Antimicrobial Agents and Chemotherapy, September 2007, 3346-3353; cited from earlier work

Row | SMILES | half-life at 1 μM [1] | half-life at 1 μM [2] | half-life at 1 μM [3] | EC50 [4] | CC50 at 2 days [5] | anti-RSV activity [6]
1 | CCn1ncc(C(=O)N[C@H]2N=C(c3ccccc3)c3ccccc3NC2=O)c1Oc1c(F)cc(C)cc1F [Example 1, 5-(2,6-Difluoro-4-methylphenoxy)-1-ethyl-N-[(3S)-2-oxo-5-phenyl-1,3-dihydro-1,4-benzodiazepin-3-yl]pyrazole-4-carboxamide] | 5 min | 38.6 min | 36 min | 91 nM | > 25000 nM | 
2 | O=C(N[C@H]1N=C(c2ccccc2)c2cccc(F)c2NC1=O)c1cnn(C2CCOCC2)c1Oc1c(F)cc(Cl)cc1F [Example 6, 5-(4-Chloro-2,6-difluorophenoxy)-N-[(3S)-9-fluoro-2-oxo-5-phenyl-1,3-dihydro-1,4-benzodiazepin-3-yl]-1-(oxan-4-yl)pyrazole-4-carboxamide] |  |  |  | 55 nM | > 25000 nM | 
3 | O=C(N[C@H]1N=C(c2ccccc2)c2cccc(F)c2NC1=O)c1cnn(C2COC2)c1Oc1c(F)cc(Cl)cc1F [Example 5, 5-(4-Chloro-2,6-difluorophenoxy)-N-[(3S)-9-fluoro-2-oxo-5-phenyl-1,3-dihydro-1,4-benzodiazepin-3-yl]-1-(oxetan-3-yl)pyrazole-4-carboxamide] | 42.3 min | 174 min | 15.8 min | 74 nM | > 25000 nM | 
4 | O=C(N[C@H]1N=C(c2ccccc2)c2cccc(F)c2NC1=O)c1cnn(C2COC2)c1Oc1ccc(Cl)cc1F [Example 3, 5-(4-Chloro-2-fluorophenoxy)-N-[(3S)-9-fluoro-2-oxo-5-phenyl-1,3-dihydro-1,4-benzodiazepin-3-yl]-1-(oxetan-3-yl)pyrazole-4-carboxamide] | 38.3 min | 140 min | 24.5 min | 71 nM | > 25000 nM | 
5 | Cc1ccc(Oc2c(C(=O)N[C@H]3N=C(c4ccccc4)c4ccccc4NC3=O)cnn2C2CCOCC2)c(F)c1 [Example 2, 5-(2-Fluoro-4-methylphenoxy)-1-(oxan-4-yl)-N-[(3S)-2-oxo-5-phenyl-1,3-dihydro-1,4-benzodiazepin-3-yl]pyrazole-4-carboxamide] |  |  |  | 89 nM | > 25000 nM | 
6 | O=C(Nc1ccccc1F)N[C@H]1N=C(c2ccccc2)c2ccccc2NC1=O [RSV604] |  |  |  |  |  | sub-micromolar
7 | O=C(N[C@H]1N=C(c2ccccc2)c2cccc(F)c2NC1=O)c1cnn(C2CCOCC2)c1Oc1ccc(Cl)cc1F [Example 4, 5-(4-Chloro-2-fluorophenoxy)-N-[(3S)-9-fluoro-2-oxo-5-phenyl-1,3-dihydro-1,4-benzodiazepin-3-yl]-1-(oxan-4-yl)pyrazole-4-carboxamide] | 19.7 min | 117 min | 38.8 min | 67 nM | > 25000 nM | 
